Measurements reported in article PMC10796436, “Peptidyl nitroalkene inhibitors of main protease rationalized by computational and crystallographic investigations as antivirals against SARS-CoV-2” (Communications Chemistry, 2024).
Values joined by “and” are separate entries in the source; they are usually repeats but may differ in a detail not shown here. Identical values can stand only once.

What was measured:
SARS-CoV-2 M^pro [1] = target: T1, SARS-CoV-2 M^pro (Severe acute respiratory syndrome coronavirus 2, UniProt P0DTD1); test: biochemical; conditions: M^pro from pMal-M^pro vector
SARS-CoV-2 M^pro [2] = target: T1, SARS-CoV-2 M^pro; test: Mpro FRET inhibition, continuous fluorometric assay (Fluorolog-3), enzyme from pET21-M^pro vector; assay type: biochemical; conditions: read-out: Ki (μM)^b
SARS-CoV-2 = test: microbe, parasite or virus in culture; assay type: cell-based; conditions: for virus titer Mean (%): mean of Exp.1-3; for virus titer (%) of conc 0 / virus titer (pfu/ml): single experiments
[3] = target: human matriptase (MT-SP1) (Homo sapiens, UniProt Q9Y5Y6); test: Matriptase inhibition, fluorometric assay; assay type: biochemical; conditions: 20 μM
[4] = target: Zika Virus NS2B/NS3 (bZiPro) (Zika virus, UniProt A0A024B7W1); test: Zika virus protease inhibition, fluorometric assay; assay type: biochemical; conditions: 20 μM
cathepsin L (CatL) = target: T2, cathepsin L (CatL) (Homo sapiens, UniProt P07711); test: Cathepsin L inhibition, fluorometric assay; assay type: biochemical
T2 construct: purchased Calbiochem (Merck Millipore)

M^pro = M^pro (Severe acute respiratory syndrome coronavirus 2, UniProt P0DTD1); test: biochemical; assay type: binding

human matriptase (MT-SP1), sequence (Q9Y5Y6 615-855 limits assumed, other chains not shown): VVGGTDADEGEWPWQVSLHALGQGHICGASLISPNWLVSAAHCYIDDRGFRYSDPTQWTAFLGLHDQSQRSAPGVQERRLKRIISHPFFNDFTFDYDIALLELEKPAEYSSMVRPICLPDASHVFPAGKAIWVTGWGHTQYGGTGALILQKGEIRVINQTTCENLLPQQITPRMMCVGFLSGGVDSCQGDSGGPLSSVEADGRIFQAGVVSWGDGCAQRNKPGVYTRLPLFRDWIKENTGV
Zika Virus NS2B/NS3 (bZiPro), sequence (A0A024B7W1 1425-1464): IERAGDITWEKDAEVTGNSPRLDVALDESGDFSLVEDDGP
Zika Virus NS2B/NS3 (bZiPro), sequence (A0A024B7W1 1503-1680): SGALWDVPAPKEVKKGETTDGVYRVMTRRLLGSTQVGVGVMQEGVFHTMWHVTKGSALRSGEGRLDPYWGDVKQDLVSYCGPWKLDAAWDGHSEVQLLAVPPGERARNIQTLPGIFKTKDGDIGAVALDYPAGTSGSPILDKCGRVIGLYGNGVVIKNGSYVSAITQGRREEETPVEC
T2 sequence (P07711 114-288 limits assumed): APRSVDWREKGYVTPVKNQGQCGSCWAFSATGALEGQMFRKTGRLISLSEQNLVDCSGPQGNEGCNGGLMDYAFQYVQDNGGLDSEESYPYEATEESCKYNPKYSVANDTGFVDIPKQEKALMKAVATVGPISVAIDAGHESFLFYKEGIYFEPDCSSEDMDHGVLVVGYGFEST
T2 sequence (P07711 292-333 limits assumed): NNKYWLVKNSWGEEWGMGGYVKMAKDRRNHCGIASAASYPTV

Compound `CC(C)C[C@H](NC(=O)OCc1ccccc1)C(=O)N[C@H](/C=C/[N+](=O)[O-])C[C@@H]1CCNC1=O` [FGA147] has a Ki (SARS-CoV-2 M^pro [1]) of 2.18 ± 0.19 µM, a Ki (SARS-CoV-2 M^pro [2]) of 1.33 ± 0.05 µM and an EC50 (SARS-CoV-2; Severe acute respiratory syndrome coronavirus 2, 24 h, Huh-7-ACE2, 24h p.t., MOI=0.1) of 1.9 µM. For the same compound, the “virus titer Mean (%)” value (SARS-CoV-2; conc 0.1) was 153.333%, the “virus titer (%) of conc 0” value (SARS-CoV-2; conc 0.1) was 160% and 180% and 120% and the “virus titer (pfu/ml)” value (SARS-CoV-2; conc 0.1) was 1600000 pfu/ml and 1800000 pfu/ml and 2400000 pfu/ml. The “virus titer Mean (%)” value (SARS-CoV-2; conc 0.5) was 83.3333%, the “virus titer (pfu/ml)” value (SARS-CoV-2; conc 0.5) was 1000000 pfu/ml and 1200000 pfu/ml and 600000 pfu/ml and the “virus titer Mean (%)” value (SARS-CoV-2; conc 1) was 85%. For the same compound, the “virus titer Mean (%)” value (SARS-CoV-2; conc 5) was 0.5017%, the “virus titer (%) of conc 0” value (SARS-CoV-2; conc 5) was 1% and 0.365% and 0.14% and the “virus titer Mean (%)” value (SARS-CoV-2; conc 10) was 0.08%. For the same compound, the “virus titer (%) of conc 0” value (SARS-CoV-2; conc 10) was 0.04% and 0.15% and 0.05%, the “virus titer Mean (%)” value (SARS-CoV-2; conc 50) was 0.025% and the “virus titer (%) of conc 0” value (SARS-CoV-2; conc 50) was 0.06% and 0.012% and 0.003%. For the same compound, the “virus titer Mean (%)” value (SARS-CoV-2; conc 100) was 0.01767%, the “virus titer (%) of conc 0” value (SARS-CoV-2; conc 100) was 0.02% and 0.026% and 0.007% and the “virus titer (pfu/ml)” value (SARS-CoV-2; conc 100) was 200 pfu/ml and 260 pfu/ml and 140 pfu/ml. For the same compound, the MT-SP1 [3] was “n.i. (no inhibition (<10%) was observed at a concentration of 20 μM)”, the bZiPro [4] was “n.i. (no inhibition (<10%) was observed at a concentration of 20 μM)” and the Ki (cathepsin L (CatL)) was 1.99 ± 0.107 µM. For the same compound, the “Tm of M^pro” value (M^pro; 25 µM) was 46.2 ± 0.1 °C, the “change of Tm of M^pro” value (M^pro; 25 µM) was −3.0 ± 0.1 °C and the ΔTm at 25 µM (M^pro; 25 µM, read-out: DTm (°C)) was -3 °C. For the same compound, the “Tm of M^pro” value (M^pro; 100 μM) was 45.0 ± 0.2 °C, the “change of Tm of M^pro” value (M^pro; 100 μM) was −4.2 ± 0.2 °C and the Fraction unfolded (M^pro; 25 mM, 21.5 °C) was 0.04278. For the same compound, the Fraction unfolded (M^pro; 25 mM, 22 °C) was 0.07148, the Fraction unfolded (M^pro; 25 mM, 22.5 °C) was 0.01751 and the Fraction unfolded (M^pro; 25 mM, 23 °C) was -0.05389. It also gave a Fraction unfolded (M^pro; 25 mM, 23.5 °C) of -0.01968, a Fraction unfolded (M^pro; 25 mM, 24 °C) of 0.09885 and a Fraction unfolded (M^pro; 25 mM, 24.5 °C) of 0.01751. For the same compound, the Fraction unfolded (M^pro; 25 mM, 25 °C) was 0.01414, the Fraction unfolded (M^pro; 25 mM, 25.5 °C) was -0.01034 and the Fraction unfolded (M^pro; 25 mM, 26 °C) was 0.01683. It also gave a Fraction unfolded (M^pro; 25 mM, 26.5 °C) of 0.04278, a Fraction unfolded (M^pro; 25 mM, 27 °C) of 0.07148 and a Fraction unfolded (M^pro; 25 mM, 27.5 °C) of -0.01421. It also gave a Fraction unfolded (M^pro; 25 mM, 28 °C) of -0.05389, a Fraction unfolded (M^pro; 25 mM, 28.5 °C) of -0.01968 and a Fraction unfolded (M^pro; 25 mM, 29 °C) of 0.09885. It also gave a Fraction unfolded (M^pro; 25 mM, 29.5 °C) of 0.01751, a Fraction unfolded (M^pro; 25 mM, 30 °C) of -0.01678 and a Fraction unfolded (M^pro; 25 mM, 30.5 °C) of 0.01948. It also gave a Fraction unfolded (M^pro; 25 mM, 31 °C) of 0.07312, a Fraction unfolded (M^pro; 25 mM, 31.5 °C) of 0.01304 and a Fraction unfolded (M^pro; 25 mM, 32 °C) of 0.01813. For the same compound, the Fraction unfolded (M^pro; 25 mM, 66.5 °C) was 1.064, the Fraction unfolded (M^pro; 25 mM, 67 °C) was 1.093 and the Fraction unfolded (M^pro; 25 mM, 67.5 °C) was 1.004. It also gave a Fraction unfolded (M^pro; 25 mM, 68 °C) of 1.064, a Fraction unfolded (M^pro; 25 mM, 68.5 °C) of 0.9281 and a Fraction unfolded (M^pro; 25 mM, 69 °C) of 1.033. It also gave a Fraction unfolded (M^pro; 25 mM, 69.5 °C) of 0.9909, a Fraction unfolded (M^pro; 25 mM, 70 °C) of 0.9575 and a Fraction unfolded (M^pro; 25 mM, 70.5 °C) of 1.011. For the same compound, the Fraction unfolded (M^pro; 25 mM, 71 °C) was 1.05, the Fraction unfolded (M^pro; 25 mM, 71.5 °C) was 1.061 and the Fraction unfolded (M^pro; 25 mM, 72 °C) was 0.9314. It also gave a Fraction unfolded (M^pro; 25 mM, 72.5 °C) of 1.024, a Fraction unfolded (M^pro; 25 mM, 73 °C) of 1.027 and a Fraction unfolded (M^pro; 25 mM, 73.5 °C) of 1.08. It also gave a Fraction unfolded (M^pro; 25 mM, 74 °C) of 1, a Fraction unfolded (M^pro; 25 mM, 74.5 °C) of 0.9793 and a Fraction unfolded (M^pro; 25 mM, 75 °C) of 0.8934. It also gave a Fraction unfolded (M^pro; 25 mM, 75.5 °C) of 0.9799, a Fraction unfolded (M^pro; 25 mM, 76 °C) of 1.027 and a Fraction unfolded (M^pro; 25 mM, 76.5 °C) of 0.9678. The Fraction unfolded (M^pro; 25 mM, 77 °C) was 0.9735, the Fraction unfolded (M^pro; 25 mM, 77.5 °C) was 0.9321 and the Fraction unfolded (M^pro; 25 mM, 78 °C) was 1.0047. For the same compound, the Fraction unfolded (M^pro; 25 mM, 78.5 °C) was 1.022, the Fraction unfolded (M^pro; 25 mM, 79 °C) was 0.9456 and the Fraction unfolded (M^pro; 25 mM, 79.5 °C) was 1.012. The Fraction unfolded (M^pro; 25 mM, 80 °C) was 0.9456, the Fraction unfolded (M^pro; 100 mM, 21.5 °C) was -0.02084 and the Fraction unfolded (M^pro; 100 mM, 22 °C) was -0.00506. For the same compound, the Fraction unfolded (M^pro; 100 mM, 22.5 °C) was 0.01094, the Fraction unfolded (M^pro; 100 mM, 23 °C) was 0.02167 and the Fraction unfolded (M^pro; 100 mM, 23.5 °C) was -0.03337. For the same compound, the Fraction unfolded (M^pro; 100 mM, 24 °C) was -0.04925, the Fraction unfolded (M^pro; 100 mM, 24.5 °C) was -0.01302 and the Fraction unfolded (M^pro; 100 mM, 25 °C) was 0.0174. It also gave a Fraction unfolded (M^pro; 100 mM, 25.5 °C) of 0.07455, a Fraction unfolded (M^pro; 100 mM, 26 °C) of -0.07318 and a Fraction unfolded (M^pro; 100 mM, 26.5 °C) of 0.02179. The Fraction unfolded (M^pro; 100 mM, 27 °C) was -0.00134, the Fraction unfolded (M^pro; 100 mM, 27.5 °C) was 0.02966 and the Fraction unfolded (M^pro; 100 mM, 28 °C) was -0.07997. The Fraction unfolded (M^pro; 100 mM, 28.5 °C) was -0.01931, the Fraction unfolded (M^pro; 100 mM, 29 °C) was 0.05111 and the Fraction unfolded (M^pro; 100 mM, 29.5 °C) was 0.02685. It also gave a Fraction unfolded (M^pro; 100 mM, 30 °C) of 0.06732, a Fraction unfolded (M^pro; 100 mM, 30.5 °C) of -0.02735 and a Fraction unfolded (M^pro; 100 mM, 31 °C) of 0.01656. For the same compound, the Fraction unfolded (M^pro; 100 mM, 31.5 °C) was -0.02084, the Fraction unfolded (M^pro; 100 mM, 32 °C) was -0.00506 and the Fraction unfolded (M^pro; 100 mM, 66.5 °C) was 1.07. For the same compound, the Fraction unfolded (M^pro; 100 mM, 67 °C) was 1.013, the Fraction unfolded (M^pro; 100 mM, 67.5 °C) was 0.9992 and the Fraction unfolded (M^pro; 100 mM, 68 °C) was 1.02. For the same compound, the Fraction unfolded (M^pro; 100 mM, 68.5 °C) was 1.071, the Fraction unfolded (M^pro; 100 mM, 69 °C) was 0.9861 and the Fraction unfolded (M^pro; 100 mM, 69.5 °C) was 1.008. It also gave a Fraction unfolded (M^pro; 100 mM, 70 °C) of 1.064, a Fraction unfolded (M^pro; 100 mM, 70.5 °C) of 0.8899 and a Fraction unfolded (M^pro; 100 mM, 71 °C) of 1.057. The Fraction unfolded (M^pro; 100 mM, 71.5 °C) was 1.048, the Fraction unfolded (M^pro; 100 mM, 72 °C) was 1.1085 and the Fraction unfolded (M^pro; 100 mM, 72.5 °C) was 1.099. The Fraction unfolded (M^pro; 100 mM, 73 °C) was 0.9672, the Fraction unfolded (M^pro; 100 mM, 73.5 °C) was 1.047 and the Fraction unfolded (M^pro; 100 mM, 74 °C) was 0.9312. It also gave a Fraction unfolded (M^pro; 100 mM, 74.5 °C) of 1.062, a Fraction unfolded (M^pro; 100 mM, 75 °C) of 1.063 and a Fraction unfolded (M^pro; 100 mM, 75.5 °C) of 1.018. For the same compound, the Fraction unfolded (M^pro; 100 mM, 76 °C) was 0.9202, the Fraction unfolded (M^pro; 100 mM, 76.5 °C) was 1.013 and the Fraction unfolded (M^pro; 100 mM, 77 °C) was 0.9957. For the same compound, the Fraction unfolded (M^pro; 100 mM, 77.5 °C) was 1.0714, the Fraction unfolded (M^pro; 100 mM, 78 °C) was 0.8845 and the Fraction unfolded (M^pro; 100 mM, 78.5 °C) was 0.9237. It also gave a Fraction unfolded (M^pro; 100 mM, 79 °C) of 1.0367, a Fraction unfolded (M^pro; 100 mM, 79.5 °C) of 0.9498 and a Fraction unfolded (M^pro; 100 mM, 80 °C) of 0.9799.
